Our source for the IC50 values is patent EP0670321A1, “Oxazopyrroloquinoline deivatives and use thereof” (MITSUBISHI GAS CHEMICAL COMPANY, INC., priority 1994, dated 1995).

The structures appear in SMILES notation. Some results are limits rather than exact numbers.

The target of the experiment is T1, recombinant human aldose reductase (Homo sapiens, UniProt P15121).
T1 construct: made in house; host or cells: Baculovirus-insect cell system
Description: Aldose reductase inhibition (decrease with time in absorbance at 340 nm, NADPH / DL-glyceraldehyde). It counts as biochemical. Particulars: 0.1M phosphoric acid buffer, 25°C, absorbance 340 nm, read-out: IC₅₀. From the text:
A large amount of recombinant human aldose reductase was expressed in a Baculovirus-insect cell system by Nishimura et al method (Nishimura et al, J. Biol. Chem. volume 265, pages 9,788-9,792, 1990 and Biochem. Biophys. Acta. volume 1,078, pages 171-178, 1991; and Tanimoto and Nishimura, Experimental Medicine, volume 9, No. 5 (extra issue), pages 165-170, 1991). Purification was made by affinity chromatography, gel filtration and chromatofocusing until electrophoretically uniform aldose reductase was obtained.
To 0.1M phosphoric acid buffer solution (0.8 ml) was added 3mM NADPH (0.05 ml), DL-glyceral-dehyde (0.1 ml) and distilled water (0.04 ml). The mixture was left to stand at 25°C for three minutes. To the mixture was added aldose reductase solution (0.01 ml) in order to start a reaction. Measurement was made of reduction with time in absorbance of 340 nm at 25°C. The amount of enzyme that consumes 1µ mole of […] per minute was taken as a unit.
Enzyme activities were measured after aqueous inhibiting substance solution (0.04 ml each) having various concentrations in place of the distilled water (0.04 ml) under the same conditions as those for aldose reductase. IC₅₀ values that inhibit enzyme activity by 50% were calculated on the basis of enzyme activities measured in the presence or absence of the inhibitors. The inhibitors used include: 8,10-dicarboxy-2-methoxycarbonyl-1H-oxazo[5,4-h] pyrrolo[2,3-f]quinoline (Compound 1, abbreviated OPQ-8,10-DCA-2-ME); 8-carboxy-2,10-dimethoxycarbonyl-1H-oxazo[5,4-h] pyrrolo-[2,3-f]quinoline (Compound 2, abbreviated OPQ-8-CA-2,10-DME); 10-(N-n-amyl)carbamoyl-2,8-dicarboxy-1H-oxazo [5,4-h]pyrrolo[2,3-f]quinoline (Compound 3, abbreviated OPQ-2,8-DCA-10-AA); 10-(N-n-amyl)carbamoyl-8-carboxy-2-methoxy-carbonyl-1H-oxazo[5,4-h]pyrrolo[2,3-f]quinoline (Compound 4, abbreviated OPQ-8-CA-2-ME-10-AA); 2,10-dicarboxy-8-methoxycarbonyl-1H-oxazo[5,4-h] pyrrolo-[2,3-f]quinoline (abbreviated OPQ-2,10-DCA-8-ME); 10-carboxy-2,8-dimethoxycarbonyl-1H-oxazo[5,4-h] pyrrolo-[2,3-f]quinoline (abbreviated OPQ-10-CA-2,8-DME); 2,8,10-trimethoxycarbonyl-1H-oxazo[5,4-h]pyrrolo [2,3-f]-quinoline (abbreviated OPQ-2,8,10-TME); 10-carboxy-2-methoxycarbonyl-1H-oxazo[5,4-h] pyrrolo-[2,3-f]quinoline (abbreviated OPQ-10-CA-2-ME); 8,10-diethoxycarbonyl-2-methoxycarbonyl-1H-oxazo [5,4-hj]yrrolo[2,3-f]quinoline (abbreviated OPQ-2-ME-8,10-DME); 10-(N-n-amyl) carbamoyl-2,8-dimethoxycarbonyl-1H-oxazo[5,4-h]pyrrolo[2,3-f]quinoline (abbreviated OPQ-2,8-DME-10-AA); and 2,8,10-tri[(N-n-amyl)carbamoyl]-1H-oxazo[5,4-h] pyrrolo-[2,3-f]quinoline (abbreviated OPQ-2,8,10-TAA).
Regarding `COC(=O)c1cc2c([nH]1)c1c(C(=O)O)cc(C(=O)O)nc1c1ncoc21` [Compound 1, 8,10-dicarboxy-2-methoxycarbonyl-1H-oxazo[5,4-h] pyrrolo[2,3-f]quinoline], the IC50 was 260 nM. As to `COC(=O)c1cc2c([nH]1)c1c(C(=O)OC)cc(C(=O)O)nc1c1ncoc21` [Compound 2, 8-carboxy-2,10-dimethoxycarbonyl-1H-oxazo[5,4-h] pyrrolo-[2,3-f]quinoline], the IC50 is 580 nM. Regarding `CCCCCNC(=O)c1cc(C(=O)O)nc2c3ncoc3c3cc(C(=O)O)[nH]c3c12` [Compound 3, 10-(N-n-amyl)carbamoyl-2,8-dicarboxy-1H-oxazo [5,4-h]pyrrolo[2,3-f]quinoline], the IC50 was 260 nM.

For the compound `CCCCCNC(=O)c1cc(C(=O)O)nc2c3ncoc3c3cc(C(=O)OC)[nH]c3c12` [Compound 4, 10-(N-n-amyl)carbamoyl-8-carboxy-2-methoxy-carbonyl-1H-oxazo[5,4-h]pyrrolo[2,3-f]quinoline], the IC50 amounted to 190 nM.

As to `CCCCCNC(=O)c1cc(C(=O)NCCCCC)c2c(n1)c1ncoc1c1cc(C(=O)NCCCCC)[nH]c12` [OPQ-2,8,10-TAA, 2,8,10-tri[(N-n-amyl)carbamoyl]-1H-oxazo[5,4-h] pyrrolo-[2,3-f]quinoline], the IC50 amounted to 77000 nM.

For `COC(=O)c1cc(C(=O)OC)c2c(n1)c1ncoc1c1cc(C(=O)OC)[nH]c12` [OPQ-2,8,10-TME, 2,8,10-trimethoxycarbonyl-1H-oxazo[5,4-h]pyrrolo [2,3-f]-quinoline], the IC50 is > 100000 nM. On to `CCCCCNC(=O)c1cc(C(=O)OC)nc2c3ncoc3c3cc(C(=O)OC)[nH]c3c12` [OPQ-2,8-DME-10-AA, 10-(N-n-amyl) carbamoyl-2,8-dimethoxycarbonyl-1H-oxazo[5,4-h]pyrrolo[2,3-f]quinoline], for which the IC50 came to 93000 nM.

For `COC(=O)c1cc(C(=O)O)c2c(n1)c1ncoc1c1cc(C(=O)O)[nH]c12` [OPQ-2,10-DCA-8-ME, 2,10-dicarboxy-8-methoxycarbonyl-1H-oxazo[5,4-h] pyrrolo-[2,3-f]quinoline], the IC50 amounted to 2900 nM.

In the case of `CCOC(=O)c1cc(C(=O)OCC)c2c(n1)c1ncoc1c1cc(C(=O)OC)[nH]c12` [OPQ-2ME-8,10-DEE, 8,10-diethoxycarbonyl-2-methoxycarbonyl-1H-oxazo [5,4-hj]yrrolo[2,3-f]quinoline], the IC50 is > 100000 nM. For `COC(=O)c1cc(C(=O)O)c2c(n1)c1ncoc1c1cc(C(=O)OC)[nH]c12` [OPQ-10-CA-2,8-DME, 10-carboxy-2,8-dimethoxycarbonyl-1H-oxazo[5,4-h] pyrrolo-[2,3-f]quinoline], the IC50 is 1300 nM.

Regarding `COC(=O)c1cc2c([nH]1)c1c(C(=O)O)ccnc1c1ncoc21` [OPQ-10-CA-2ME, 10-carboxy-2-methoxycarbonyl-1H-oxazo[5,4-h] pyrrolo-[2,3-f]quinoline], the IC50 worked out at 1700 nM.
